Reference: patent US20250282749A1 (Tango Therapeutics, Inc., priority 2022, published 2025)

Tests used:
Type in all cases: cell-based
[1] = test system: HAP1 MTAP-deleted cell line; experiment: viability assay for the MTAP-deleted cell line; details: Homo sapiens
[2] = test system: PRMT5 (SDMA) in HAP1 MTAP-intact cell line; experiment: SDMA in-cell western assay, HAP1 MTAP-intact cell line; details: Homo sapiens, HAP1 MTAP-intact cell line (endogenous MTAP), read-out: Hap 1 MTAP intact IC50
From the text: (§1) HAP1 MTAP-intact is a cell line in which endogenous levels of MTAP are expressed, and HAP1 MTAP-deleted is an MTAP-null cell line.

[3] = test system: PRMT5 (SDMA) in HAP1 MTAP-deleted cell line; experiment: SDMA in-cell western assay, HAP1 MTAP-deleted cell line; details: for IC50 / IC90: Homo sapiens, SDMA in-cell western, HAP1 MTAP-deleted (MTAP-null) cell line; for Hap1 MTAP intact/deleted ratio: ratio of SDMA in-cell western IC50 in HAP1 MTAP-intact to IC50 in HAP1 MTAP-deleted cell line
From the text: as §1

Structure (SMILES)	IC50 [2]	IC50 [3]	IC90 [3]	IC50 [1]	Hap1 MTAP intact/deleted ratio [3]
C[C@@H]1CN(C(=O)C(=O)Nc2cnc(N)c3cn[nH]c23)[C@@H](c2ccccc2)CO1 [Compound 107]	> 0.05 µM	< 0.005 µM	< 0.075 µM	0.1 to 1 µM	A (an IC50 ratio greater than or equal to 30 fold)
Cc1cc(NC(=O)C(=O)N2C[C@@H](C)N(C(=O)C(C)(C)CN3CCn4ccnc4C3)C[C@@H]2c2ccccc2)cnc1N [Compound 109]	> 0.05 µM	0.005 to 0.05 µM	> 0.125 µM	0.1 to 1 µM	C (an IC50 ratio of less than 15 fold)
C[C@@H]1CN(C(=O)C(=O)Nc2cnc(N)c(C3CC3)c2)[C@@H](c2ccc(F)cc2)CN1C(=O)C1(C(F)(F)F)CC1 [Compound 112, N-(6-amino-5-cyclopropylpyridin-3-yl)-2-((2S,5R)-2-(4-fluorophenyl)-5-methyl-4-(1-(trifluoromethyl)cyclopropanecarbonyl)piperazin-1-yl)-2-oxoacetamide]	> 0.05 µM	0.005 to 0.05 µM	0.075 to 0.125 µM	< 0.1 µM	C (an IC50 ratio of less than 15 fold)
CC(C)C(=O)N1C[C@H](c2cccc(N3CCN(C)CC3)c2)N(C(=O)C(=O)Nc2cncc3cn[nH]c23)C[C@H]1C [Compound 113, 2-((2S,5R)-4-isobutyryl-5-methyl-2-(3-(4-methylpiperazin-1-yl)phenyl)piperazin-1-yl)-2-oxo-N-(1H-pyrazolo[4,3-c]pyridin-7-yl)acetamide]	> 0.05 µM	0.005 to 0.05 µM	> 0.125 µM	< 0.1 µM	C (an IC50 ratio of less than 15 fold)
CC(C)C(=O)N1C[C@@H](c2ccc(F)cc2)N(C(=O)C(=O)Nc2cnc(N)c(C3CC3)c2)C[C@@H]1C [Compound 115, N-(6-amino-5-cyclopropyl-3-pyridyl)-2-[(2R,5S)-2-(4-fluorophenyl)-5-methyl-4-(2-methylpropanoyl)piperazin-1-yl]-2-oxo-acetamide]	> 0.05 µM	> 0.05 µM	> 0.125 µM	> 1 µM	C (an IC50 ratio of less than 15 fold)
CCc1cc(NC(=O)C(=O)N2C[C@@H](C)N(C(=O)C3(C(F)(F)F)CC3)C[C@@H]2c2ccc(F)cc2)cnc1N [Compound 116, N-(6-amino-5-ethylpyridin-3-yl)-2-((2S,5R)-2-(4-fluorophenyl)-5-methyl-4-(1-(trifluoromethyl)cyclopropanecarbonyl)piperazin-1-yl)-2-oxoacetamide]	> 0.05 µM	< 0.005 µM	< 0.075 µM	< 0.1 µM	A (an IC50 ratio greater than or equal to 30 fold)
Cc1cc(NC(=O)C(=O)N2C[C@@H](C)N(C(=O)C3(C(F)(F)F)CC3)C[C@@H]2c2ccc(Cl)c(Cl)c2)cnc1N [Compound 119, N-(6-amino-5-methylpyridin-3-yl)-2-((2S,5R)-2-(3,4-dichlorophenyl)-5-methyl-4-(1-(trifluoromethyl)cyclopropanecarbonyl)piperazin-1-yl)-2-oxoacetamide]	> 0.05 µM	0.005 to 0.05 µM	0.075 to 0.125 µM	< 0.1 µM	C (an IC50 ratio of less than 15 fold)
Cc1cc(NC(=O)C(=O)N2C[C@@H](C)N(C(=O)OC3(C)CC3)C[C@@H]2c2ccc(F)cc2)cnc1N [Compound 120]	> 0.05 µM	0.005 to 0.05 µM	0.075 to 0.125 µM	0.1 to 1 µM	B (an IC50 ratio greater than or equal to 15 fold but lower than 30 fold)
CCc1cc(NC(=O)C(=O)N2C[C@@H](C)N(CC(C)(C)C)C[C@@H]2c2ccccc2)cnc1N [Compound 121, N-(6-amino-5-ethylpyridin-3-yl)-2-((2S,5R)-5-methyl-4neopentyl-2-phenylpiperazin-1-yl)-2-oxoacetamide]	> 0.05 µM	0.005 to 0.05 µM	0.075 to 0.125 µM	< 0.1 µM	B (an IC50 ratio greater than or equal to 15 fold but lower than 30 fold)
CC(C)CN1C[C@H](c2ccccc2)N(C(=O)C(=O)Nc2cnc(N)c(C3CC3)c2)C[C@H]1C [Compound 122, N-(6-amino-5-cyclopropylpyridin-3-yl)-2-((2S,5R)-4-isobutyl-5-methyl-2-phenylpiperazin-1-yl)-2-oxoacetamide]	> 0.05 µM	0.005 to 0.05 µM	> 0.125 µM	< 0.1 µM	B (an IC50 ratio greater than or equal to 15 fold but lower than 30 fold)
C[C@@H]1CN(C(=O)C(=O)Nc2cncc3[nH]ncc23)[C@@H](c2ccc(F)cc2)CN1C(=O)C(C)(C)C [Compound 125, 2-[(2R,5R)-4-(2,2-dimethylpropanoyl)-2-(4-fluorophenyl)-5-methyl-piperazin-1-yl]-2-oxo-N-(^1H-pyrazolo[3,4-c]pyridin-4-yl)acetamide]	> 0.05 µM	0.005 to 0.05 µM	< 0.075 µM	0.1 to 1 µM	A (an IC50 ratio greater than or equal to 30 fold)
CC(C)C(=O)N1CCN(C(=O)C(=O)Nc2cnc(N)c3cn[nH]c23)[C@@H](c2ccccc2)C1 [Compound 126, (S)—N-(4-amino-1H-pyrazolo[4,3-c]pyridin-7-yl)-2-(4-isobutyryl-2-phenylpiperazin-1-yl)-2-oxoacetamide]	> 0.05 µM	< 0.005 µM	< 0.075 µM	0.1 to 1 µM	A (an IC50 ratio greater than or equal to 30 fold)

Continued, in another order:

IC50 [2]	IC50 [3]	IC90 [3]	Structure (SMILES)	IC50 [1]	Hap1 MTAP intact/deleted ratio [3]
> 0.05 µM	0.005 to 0.05 µM	0.075 to 0.125 µM	CC(C)C(=O)N1C[C@H](c2ccccc2)N(C(=O)C(=O)Nc2cnc(N)c(C3CC3)c2)C[C@H]1C [Compound 98, N-(6-amino-5-cyclopropylpyridin-3-yl)-2-((2S,5R)-4-isobutyryl-5-methyl-2-phenylpiperazin-1-yl)-2-oxoacetamide]	< 0.1 µM	C (an IC50 ratio of less than 15 fold)
0.005 to 0.05 µM	< 0.005 µM	< 0.075 µM	Cc1cc(NC(=O)C(=O)N2C[C@@H](C)N(C(=O)C(C)(C)C)C[C@@H]2c2ccccc2)cnc1N [Compound 99, N-(6-amino-5-methylpyridin-3-yl)-2-((2S,5R)-5-methyl-2-phenyl-4-pivaloylpiperazin-1-yl)-2-oxoacetamide]	< 0.1 µM	C (an IC50 ratio of less than 15 fold)
> 0.05 µM	0.005 to 0.05 µM	> 0.125 µM	C[C@@H]1CN(C(=O)C(=O)Nc2cncc3cn[nH]c23)[C@@H](c2ccccc2)CN1C(=O)C1(C(F)(F)F)CC1 [Compound 100, 2-((2S,5R)-5-methyl-2-phenyl-4-(1-(trifluoromethyl)cyclopropanecarbonyl)piperazin-1-yl)-2-oxo-N-(1H-pyrazolo[4,3-c]pyridin-7-yl)acetamide]	< 0.1 µM	C (an IC50 ratio of less than 15 fold)
> 0.05 µM	< 0.005 µM	< 0.075 µM	Cc1cc(NC(=O)C(=O)N2C[C@@H](C)N(C(=O)OC(C)(C)C)C[C@@H]2c2ccc(F)cc2)cnc1N [Compound 101]	< 0.1 µM	B (an IC50 ratio greater than or equal to 15 fold but lower than 30 fold)
> 0.05 µM	< 0.005 µM	< 0.075 µM	CCc1cc(NC(=O)C(=O)N2C[C@@H](C)N(C(=O)C3(C)CC3)C[C@@H]2c2ccc(N3CCN(C)CC3)cc2)cnc1N [Compound 105, N-(6-amino-5-ethylpyridin-3-yl)-2-((2S,5R)-5-methyl-4-(1-methylcyclopropanecarbonyl)-2-(4-(4-methylpiperazin-1-yl)phenyl)piperazin-1-yl)-2-oxoacetamide]	< 0.1 µM	B (an IC50 ratio greater than or equal to 15 fold but lower than 30 fold)
< 0.005 µM	< 0.005 µM	< 0.075 µM	CCc1cc(NC(=O)C(=O)N2C[C@@H](C)N(C(=O)C(C)(C)C)C[C@@H]2c2cccc(N3CCN(C)CC3)c2)cnc1N [Compound 110, N-(6-amino-5-ethylpyridin-3-yl)-2-((2S,5R)-5-methyl-2-(3-(4-methylpiperazin-1-yl)phenyl)-4-pivaloylpiperazin-1-yl)-2-oxoacetamide]	< 0.1 µM	C (an IC50 ratio of less than 15 fold)
0.005 to 0.05 µM	< 0.005 µM	0.075 to 0.125 µM	Cc1cc(NC(=O)C(=O)N2C[C@@H](C)N(C(=O)C3(C(F)(F)F)CC3)C[C@@H]2c2cccs2)cnc1N [Compound 111, N-(6-amino-5-methyl-3-pyridyl)-2-[(2R,5R)-5-methyl-2-(2-thienyl)-4-[1-(trifluoromethyl)cyclopropanecarbonyl]piperazin-1-yl]-2-oxo-acetamide]	< 0.1 µM	C (an IC50 ratio of less than 15 fold)
0.005 to 0.05 µM	0.005 to 0.05 µM	< 0.075 µM	Cc1cc(NC(=O)C(=O)N2C[C@@H](C)N(C(=O)C(C)C)C[C@@H]2c2cccc(N3CCN(C)CC3)c2)cnc1N [Compound 117, N-(6-amino-5-methylpyridin-3-yl)-2-((2S,5R)-4-isobutyryl-5-methyl-2-(3-(4-methylpiperazin-1-yl)phenyl)piperazin-1-yl)-2-oxoacetamide]	< 0.1 µM	C (an IC50 ratio of less than 15 fold)
0.005 to 0.05 µM	0.005 to 0.05 µM	< 0.075 µM	C[C@@H]1CN(C(=O)C(=O)Nc2cnc(N)c(C3COC3)c2)[C@@H](c2ccccc2)CN1C(=O)C(C)(C)C [Compound 127, N-(6-amino-5-(oxetan-3-yl)pyridin-3-yl)-2-((2S,5R)-5-methyl-2-phenyl-4-pivaloylpiperazin-1-yl)-2-oxoacetamide]	< 0.1 µM	C (an IC50 ratio of less than 15 fold)
